Tested on: Escherichia coli ATCC 25922
Experiment: 50% growth inhibitory concentration (IC50) determination, Iso-Sensitest broth dilution
Format: cell-based
Details: Escherichia coli, ATCC25922, 16 h, strain Escherichia coli ATCC 25922; 10-point broth dilution, optical density at 600 nm over 16 h; read-out: Escherichia coli growth inhibition IC50
How it was run: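 Growth was tracked as optical density at 600 nm every 20 minutes for 16 h at 35±2° C. Compounds from DMSO stocks were serially diluted twofold over 10 points (e.g. 50–0.097 μM final) in Iso-Sensitest broth. Inhibition computed in log-phase growth to give IC50.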

Row | Compound | IC50 [nM]
1 | Cn1nnnc1COc1cc(C#N)c2c(c1)CC(CNCCC1CN(c3cnc4c(n3)NC(=O)CO4)C(=O)O1)C2 (centres unmarked) [Example 391, 6-[(1-methyltetrazol-5-yl)methoxy]-2-[[2-[2-oxo-3-(3-oxo-4H-pyrazino[2,3-b][1,4]oxazin-6-yl)-1,3-oxazolidin-5-yl]ethylamino]methyl]-2,3-dihydro-1H-indene-4-carbonitrile] | 258
2 | Cc1nonc1COc1cc(C#N)c2c(c1)CC(CNCCC1CN(c3cnc4c(n3)NC(=O)CO4)C(=O)O1)C2 (centres unmarked) [Example 392, 6-[(4-methyl-1,2,5-oxadiazol-3-yl)methoxy]-2-[[2-[2-oxo-3-(3-oxo-4H-pyrazino[2,3-b][1,4]oxazin-6-yl)-1,3-oxazolidin-5-yl]ethylamino]methyl]-2,3-dihydro-1H-indene-4-carbonitrile] | < 97.7
3 | CNC(=O)COc1cc(F)c2c(c1F)CC(CNCCC1CN(c3cnc4c(n3)NC(=O)CO4)C(=O)O1)C2 (centres unmarked) [Example 393, 2-[[4,7-difluoro-2-[[2-[2-oxo-3-(3-oxo-4H-pyrazino[2,3-b][1,4]oxazin-6-yl)-1,3-oxazolidin-5-yl]ethylamino]methyl]-2,3-dihydro-1H-inden-5-yl]oxy]-N-methylacetamide] | < 97.7
4 | CNC(=O)COc1cc(F)c2c(c1F)CC(CNCCC1CN(c3ccc4c(n3)NC(=O)CO4)C(=O)O1)C2 (centres unmarked) [Example 394, 2-[[4,7-difluoro-2-[[2-[2-oxo-3-(3-oxo-4H-pyrido[3,2-b][1,4]oxazin-6-yl)-1,3-oxazolidin-5-yl]ethylamino]methyl]-2,3-dihydro-1H-inden-5-yl]oxy]-N-methylacetamide] | < 97.7
5 | O=C1COc2ncc(N3CC(CCNCC4Cc5c(F)cc(OCc6cc[nH]n6)c(F)c5C4)OC3=O)nc2N1 (centres unmarked) [Example 395, 6-[5-[2-[[4,7-difluoro-5-(1H-pyrazol-3-ylmethoxy)-2,3-dihydro-1H-inden-2-yl]methylamino]ethyl]-2-oxo-1,3-oxazolidin-3-yl]-4H-pyrazino[2,3-b][1,4]oxazin-3-one] | 166
6 | O=C1COc2ncc(N3CC4(CCN(CC5Cc6c(F)cc(OCc7cc[nH]n7)c(F)c6C5)CC4)OC3=O)nc2N1 (centres unmarked) [Example 396, 6-[8-[[4,7-difluoro-5-(1H-pyrazol-3-ylmethoxy)-2,3-dihydro-1H-inden-2-yl]methyl]-2-oxo-1-oxa-3,8-diazaspiro[4.5]decan-3-yl]-4H-pyrazino[2,3-b][1,4]oxazin-3-one] | 161
7 | COc1nc(C)c2c(c1F)CC(CNCCC1CN(c3cnc4c(n3)NC(=O)CO4)C(=O)O1)C2 (centres unmarked) [Example 397, 6-[5-[2-[(4-fluoro-3-methoxy-1-methyl-6,7-dihydro-5H-cyclopenta[c]pyridin-6-yl)methylamino]ethyl]-2-oxo-1,3-oxazolidin-3-yl]-4H-pyrazino[2,3-b][1,4]oxazin-3-one] | < 97.7
8 | Cc1nc(Cl)c(F)c2c1CC(CNCCC1CN(c3cnc4c(n3)NC(=O)CO4)C(=O)O1)C2 (centres unmarked) [Example 398, 6-[5-[2-[(3-chloro-4-fluoro-1-methyl-6,7-dihydro-5H-cyclopenta[c]pyridin-6-yl)methylamino]ethyl]-2-oxo-1,3-oxazolidin-3-yl]-4H-pyrazino[2,3-b][1,4]oxazin-3-one] | < 97.7
9 | N[C@H]1c2cccc(Cl)c2C[C@@H]1CNCC[C@H]1CN(c2cnc3c(n2)NC(=O)CO3)C(=O)O1 [Example 401, 6-[(5S)-5-[2-[[(1R,2R)-1-amino-4-chloro-2,3-dihydro-1H-inden-2-yl]methylamino]ethyl]-2-oxo-1,3-oxazolidin-3-yl]-4H-pyrazino[2,3-b][1,4]oxazin-3-one] | < 97.7
10 | N[C@@H]1c2cccc(Cl)c2C[C@H]1CNCC[C@H]1CN(c2cnc3c(n2)NC(=O)CO3)C(=O)O1 [Example 402, 6-[(5S)-5-[2-[[(1S,2S)-1-amino-4-chloro-2,3-dihydro-1H-inden-2-yl]methylamino]ethyl]-2-oxo-1,3-oxazolidin-3-yl]-4H-pyrazino[2,3-b][1,4]oxazin-3-one] | < 97.7
11 | N[C@H]1c2cccc(Cl)c2C[C@@H]1CNCC[C@@H]1CN(c2cnc3c(n2)NC(=O)CO3)C(=O)O1 [Example 403, 6-[(5R)-5-[2-[[(1R,2R)-1-amino-4-chloro-2,3-dihydro-1H-inden-2-yl]methylamino]ethyl]-2-oxo-1,3-oxazolidin-3-yl]-4H-pyrazino[2,3-b][1,4]oxazin-3-one] | < 97.7
12 | N#Cc1cc(OCc2cc[nH]n2)cc2c1CC(CNCCC1CN(c3cnc4c(n3)NC(=O)CO4)C(=O)O1)C2 (centres unmarked) [Example 404, 2-[[2-[2-oxo-3-(3-oxo-4H-pyrazino[2,3-b][1,4]oxazin-6-yl)-1,3-oxazolidin-5-yl]ethylamino]methyl]-6-(1H-pyrazol-3-ylmethoxy)-2,3-dihydro-1H-indene-4-carbonitrile; formic acid] | < 97.7
13 | N#Cc1cc(OCc2cn[nH]c2)cc2c1CC(CNCCC1CN(c3cnc4c(n3)NC(=O)CO4)C(=O)O1)C2 (centres unmarked) [Example 405, 2-[[2-[2-oxo-3-(3-oxo-4H-pyrazino[2,3-b][1,4]oxazin-6-yl)-1,3-oxazolidin-5-yl]ethylamino]methyl]-6-(1H-pyrazol-4-ylmethoxy)-2,3-dihydro-1H-indene-4-carbonitrile; formic acid] | < 97.7
14 | N#Cc1cc(OCc2cnc[nH]2)cc2c1CC(CNCCC1CN(c3cnc4c(n3)NC(=O)CO4)C(=O)O1)C2 (centres unmarked) [Example 406, 6-(1H-imidazol-5-ylmethoxy)-2-[[2-[2-oxo-3-(3-oxo-4H-pyrazino[2,3-b][1,4]oxazin-6-yl)-1,3-oxazolidin-5-yl]ethylamino]methyl]-2,3-dihydro-1H-indene-4-carbonitrile; formic acid] | 139
15 | CC(C)(N)COc1cc(C#N)c2c(c1)CC(CN1CCC3(CC1)CN(c1cnc4c(n1)NC(=O)CO4)C(=O)O3)C2 (centres unmarked) [Example 407, 6-(2-amino-2-methylpropoxy)-2-[[2-oxo-3-(3-oxo-4H-pyrazino[2,3-b][1,4]oxazin-6-yl)-1-oxa-3,8-diazaspiro[4.5]decan-8-yl]methyl]-2,3-dihydro-1H-indene-4-carbonitrile] | < 97.7
16 | NC1(COc2cc(F)c3c(c2F)CC(CNCCC2CN(c4cnc5c(n4)NC(=O)CO5)C(=O)O2)C3)CC1 (centres unmarked) [Example 408, 6-[5-[2-[[5-[(1-aminocyclopropyl)methoxy]-4,7-difluoro-2,3-dihydro-1H-inden-2-yl]methylamino]ethyl]-2-oxo-1,3-oxazolidin-3-yl]-4H-pyrazino[2,3-b][1,4]oxazin-3-one; formic acid] | < 97.7
17 | NC1(COc2cc(F)c3c(c2F)CC(CNCCC2CN(c4ccc5c(n4)NC(=O)CO5)C(=O)O2)C3)CC1 (centres unmarked) [Example 409, 6-[5-[2-[[5-[(1-aminocyclopropyl)methoxy]-4,7-difluoro-2,3-dihydro-1H-inden-2-yl]methylamino]ethyl]-2-oxo-1,3-oxazolidin-3-yl]-4H-pyrido[3,2-b][1,4]oxazin-3-one; formic acid] | < 97.7
18 | NC1(COc2cc(F)c3c(c2F)CC(CN2CCC4(CC2)CN(c2cnc5c(n2)NC(=O)CO5)C(=O)O4)C3)CC1 (centres unmarked) [Example 410, 6-[8-[[5-[(1-aminocyclopropyl)methoxy]-4,7-difluoro-2,3-dihydro-1H-inden-2-yl]methyl]-2-oxo-1-oxa-3,8-diazaspiro[4.5]decan-3-yl]-4H-pyrazino[2,3-b][1,4]oxazin-3-one; formic acid] | < 97.7
19 | CC(C)(N)COc1cc(F)c2c(c1F)CC(CNCCC1CN(c3cnc4c(n3)NC(=O)CO4)C(=O)O1)C2 (centres unmarked) [Example 411, 6-[5-[2-[[5-(2-amino-2-methylpropoxy)-4,7-difluoro-2,3-dihydro-1H-inden-2-yl]methylamino]ethyl]-2-oxo-1,3-oxazolidin-3-yl]-4H-pyrazino[2,3-b][1,4]oxazin-3-one; formic acid] | < 97.7
20 | CC(C)(N)COc1cc(F)c2c(c1F)CC(CN1CCC3(CC1)CN(c1cnc4c(n1)NC(=O)CO4)C(=O)O3)C2 (centres unmarked) [Example 412, 6-[8-[[5-(2-amino-2-methylpropoxy)-4,7-difluoro-2,3-dihydro-1H-inden-2-yl]methyl]-2-oxo-1-oxa-3,8-diazaspiro[4.5]decan-3-yl]-4H-pyrazino[2,3-b][1,4]oxazin-3-one; formic acid] | < 97.7
21 | NC(=O)COc1ccc2c(c1F)CC(CNCCC1CN(c3cnc4c(n3)NC(=O)CO4)C(=O)O1)C2 (centres unmarked) [Example 413, 2-[[4-fluoro-2-[[2-[2-oxo-3-(3-oxo-4H-pyrazino[2,3-b][1,4]oxazin-6-yl)-1,3-oxazolidin-5-yl]ethylamino]methyl]-2,3-dihydro-1H-inden-5-yl]oxy]acetamide] | < 97.7
22 | N#Cc1cc(OCC(N)=O)cc2c1CC(CNCCC1CN(c3cnc4c(n3)NC(=O)CO4)C(=O)O1)C2 (centres unmarked) [Example 414, 2-[[7-cyano-2-[[2-[2-oxo-3-(3-oxo-4H-pyrazino[2,3-b][1,4]oxazin-6-yl)-1,3-oxazolidin-5-yl]ethylamino]methyl]-2,3-dihydro-1H-inden-5-yl]oxy]acetamide] | 127
23 | Cc1nc(OCc2cc[nH]n2)c(F)c2c1CC(CNCCC1CN(c3cnc4c(n3)NC(=O)CO4)C(=O)O1)C2 (centres unmarked) [Example 415] | 221
24 | Cc1nc2c(c3c1CC(CNCCC1CN(c4ccc5c(n4)NC(=O)CO5)C(=O)O1)C3)CCN2C (centres unmarked) [Example 416, 6-[5-[2-[(5,8-dimethyl-5,7-diazatricyclo[7.3.0.0^2,6]dodeca-1,6,8-trien-11-yl)methylamino]ethyl]-2-oxo-1,3-oxazolidin-3-yl]-4H-pyrido[3,2-b][1,4]oxazin-3-one] | 95.1
25 | Cc1ncc(F)c2c1CC(CNCCC1CC(=O)N(c3ccc4c(n3)NC(=O)CO4)C1)C2 (centres unmarked) [Example 417, 6-[4-[2-[(4-Fluoro-1-methyl-6,7-dihydro-5H-cyclopenta[c]pyridin-6-yl)methylamino]ethyl]-2-oxopyrrolidin-1-yl]-4H-pyrido[3,2-b][1,4]oxazin-3-one] | < 97.7
26 | O=C1COc2ccc(N3CC(CCNCC4Cc5ccncc5C4)OC3=O)nc2N1 (centres unmarked) [Example 418, 6-[5-[2-(6,7-Dihydro-5H-cyclopenta[c]pyridin-6-ylmethylamino)ethyl]-2-oxo-1,3-oxazolidin-3-yl]-4H-pyrido[3,2-b][1,4]oxazin-3-one] | 751

Source: patent publication US20230167127A1, “COMPOUNDS AND THEIR USE IN THE TREATMENT OF BACTERIAL INFECTION” (Hoffmann-La Roche Inc., priority 2020, published 2023)
